From ChEMBL document CHEMBL5465560, “Selectivity Literature for EUbOPEN Chemogenomic Library” (2024)

Columns and labels:
[1] = molecular target: Protein kinase C delta type (Homo sapiens) (UniProt Q05655); settings: at 10 µM
[2] = molecular target: Tyrosine-protein kinase SYK (Homo sapiens, UniProt P43405); experiment: Selectivity interaction (KinaseProfiler screening (Millipore)) EUB0000601a SYK; settings: at 3 µM
[3] = Selectivity interaction (KinomeScan (DiscoverX)) EUB0001049a PKNB; settings: at 1 µM
[4] = molecular target: Dual specificity tyrosine-phosphorylation-regulated kinase 1A (Homo sapiens, UniProt Q13627); experiment: Selectivity interaction (Enzymatic assay (Eurofins)) EUB0001049a DYRK1A
[5] = molecular target: Dual specificity testis-specific protein kinase 1 (Homo sapiens) (UniProt Q15569); experiment: Selectivity interaction (Ambit KINOMEscan and KiNATiv profiling in Jurkat cells) EUB0000090b TESK1; type: cell-based; settings: at 1 µM
[6] = molecular target: Calcium/calmodulin-dependent protein kinase type 1 (Homo sapiens) (UniProt Q14012); experiment: Selectivity interaction (Ambit KINOMEscan and KiNATiv profiling in Jurkat cells) EUB0000090b CAMK1; type: cell-based; settings: at 1 µM
[7] = molecular target: Focal adhesion kinase 1 (Homo sapiens, UniProt Q05397); experiment: Selectivity interaction (ActivX KiNativ screen (kinase selectivity in THP-1 cell lysates)) EUB0000639a PTK2; type: subcellular; settings: lysate, at 0.2 µM
Sequence of Focal adhesion kinase 1 (Q05397 2-1052 limits assumed): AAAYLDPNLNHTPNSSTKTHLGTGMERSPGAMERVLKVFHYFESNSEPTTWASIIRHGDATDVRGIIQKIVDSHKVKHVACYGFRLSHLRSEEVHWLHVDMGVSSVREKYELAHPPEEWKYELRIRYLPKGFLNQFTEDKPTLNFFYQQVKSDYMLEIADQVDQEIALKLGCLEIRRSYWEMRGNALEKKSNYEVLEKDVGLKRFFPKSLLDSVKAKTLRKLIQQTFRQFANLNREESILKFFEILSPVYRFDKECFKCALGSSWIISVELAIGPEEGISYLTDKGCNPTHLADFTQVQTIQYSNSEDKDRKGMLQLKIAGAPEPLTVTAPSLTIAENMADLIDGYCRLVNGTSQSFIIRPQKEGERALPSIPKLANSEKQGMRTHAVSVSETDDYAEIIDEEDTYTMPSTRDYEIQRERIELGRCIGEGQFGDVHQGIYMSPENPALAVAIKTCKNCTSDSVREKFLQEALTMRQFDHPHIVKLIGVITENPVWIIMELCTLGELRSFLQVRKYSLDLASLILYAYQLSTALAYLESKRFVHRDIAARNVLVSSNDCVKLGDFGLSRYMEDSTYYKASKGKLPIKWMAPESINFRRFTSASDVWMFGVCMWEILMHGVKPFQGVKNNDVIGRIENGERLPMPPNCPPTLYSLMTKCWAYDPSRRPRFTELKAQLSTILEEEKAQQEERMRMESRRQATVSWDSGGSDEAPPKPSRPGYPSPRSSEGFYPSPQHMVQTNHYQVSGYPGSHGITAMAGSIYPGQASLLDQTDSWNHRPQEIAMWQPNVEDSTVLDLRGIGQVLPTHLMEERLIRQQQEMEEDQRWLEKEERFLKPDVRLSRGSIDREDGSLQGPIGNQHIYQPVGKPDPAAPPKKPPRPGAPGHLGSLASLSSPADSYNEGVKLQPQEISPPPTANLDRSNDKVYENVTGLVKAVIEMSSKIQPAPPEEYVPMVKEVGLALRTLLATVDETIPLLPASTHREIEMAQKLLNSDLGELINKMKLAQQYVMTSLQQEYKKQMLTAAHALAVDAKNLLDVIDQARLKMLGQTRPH

[8] = molecular target: MAP/microtubule affinity-regulating kinase 3 (Homo sapiens) (UniProt P27448); experiment: Selectivity interaction (ActivX KiNativ screen (kinase selectivity in THP-1 cell lysates)) EUB0000639a MARK3; type: subcellular; settings: lysate, at 0.01 µM
Sequence of MAP/microtubule affinity-regulating kinase 3 (Homo sapiens) (P27448 whole entry, looked up): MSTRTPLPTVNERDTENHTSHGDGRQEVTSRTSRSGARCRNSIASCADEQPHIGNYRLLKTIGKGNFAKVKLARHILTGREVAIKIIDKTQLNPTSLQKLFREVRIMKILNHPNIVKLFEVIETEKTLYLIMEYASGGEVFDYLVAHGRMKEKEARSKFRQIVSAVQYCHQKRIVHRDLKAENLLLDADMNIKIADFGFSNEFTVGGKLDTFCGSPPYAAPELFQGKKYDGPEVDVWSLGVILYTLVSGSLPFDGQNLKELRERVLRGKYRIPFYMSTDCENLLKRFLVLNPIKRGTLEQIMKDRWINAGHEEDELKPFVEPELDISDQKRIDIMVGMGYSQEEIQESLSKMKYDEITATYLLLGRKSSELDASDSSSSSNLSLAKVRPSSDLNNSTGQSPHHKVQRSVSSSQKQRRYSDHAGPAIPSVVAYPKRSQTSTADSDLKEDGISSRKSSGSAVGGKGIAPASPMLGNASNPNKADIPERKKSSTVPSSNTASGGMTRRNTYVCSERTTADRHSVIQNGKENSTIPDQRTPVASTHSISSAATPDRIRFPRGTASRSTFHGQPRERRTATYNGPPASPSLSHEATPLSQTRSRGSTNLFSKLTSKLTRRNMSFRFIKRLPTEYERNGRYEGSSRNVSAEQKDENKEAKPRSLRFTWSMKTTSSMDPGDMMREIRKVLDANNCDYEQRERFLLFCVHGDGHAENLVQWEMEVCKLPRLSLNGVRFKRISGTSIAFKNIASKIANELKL

[9] = molecular target: T1, Dual specificity mitogen-activated protein kinase kinase 3 (Homo sapiens) (UniProt P46734); experiment: Selectivity interaction (KinomeScan (DiscoverX)) EUB0000695a MAP2K3; settings: at 100 nM
T1 sequence (whole entry): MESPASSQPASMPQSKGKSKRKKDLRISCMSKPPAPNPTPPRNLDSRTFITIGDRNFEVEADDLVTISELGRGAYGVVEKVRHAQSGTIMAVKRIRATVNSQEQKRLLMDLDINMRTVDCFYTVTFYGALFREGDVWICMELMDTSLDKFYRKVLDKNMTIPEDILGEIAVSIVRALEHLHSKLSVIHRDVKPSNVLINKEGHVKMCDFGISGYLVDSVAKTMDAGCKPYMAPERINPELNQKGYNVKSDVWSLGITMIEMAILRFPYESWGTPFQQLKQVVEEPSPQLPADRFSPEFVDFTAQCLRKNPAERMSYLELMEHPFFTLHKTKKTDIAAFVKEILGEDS

[10] = molecular target: Histamine H4 receptor (Homo sapiens) (UniProt Q9H3N8); experiment: Selectivity interaction (GPCR panel (PDSP screen)) EUB0001079a HRH4; settings: at 10 µM
Sequence of Histamine H4 receptor (Homo sapiens) (Q9H3N8 whole entry): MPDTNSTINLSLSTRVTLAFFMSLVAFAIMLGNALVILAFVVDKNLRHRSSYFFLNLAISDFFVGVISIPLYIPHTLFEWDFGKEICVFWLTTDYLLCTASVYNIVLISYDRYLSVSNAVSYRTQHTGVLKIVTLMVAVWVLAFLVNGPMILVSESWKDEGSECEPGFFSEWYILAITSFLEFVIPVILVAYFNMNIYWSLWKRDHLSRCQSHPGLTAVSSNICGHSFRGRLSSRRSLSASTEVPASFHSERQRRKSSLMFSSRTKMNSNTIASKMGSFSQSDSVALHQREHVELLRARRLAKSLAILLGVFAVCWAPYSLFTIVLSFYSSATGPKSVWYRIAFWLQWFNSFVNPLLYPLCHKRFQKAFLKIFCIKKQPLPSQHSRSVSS

[11] = molecular target: Serine/threonine-protein kinase PAK 6 (Homo sapiens) (UniProt Q9NQU5); experiment: Selectivity interaction (ProQinase) EUB0000171b PAK6; settings: at 5 µM
[12] = molecular target: T2, Mitogen-activated protein kinase kinase kinase 3 (Homo sapiens) (UniProt Q99759); experiment: Selectivity interaction (KinomeScan (DiscoverX)) EUB0000045b MAP3K3
T2 sequence (whole entry): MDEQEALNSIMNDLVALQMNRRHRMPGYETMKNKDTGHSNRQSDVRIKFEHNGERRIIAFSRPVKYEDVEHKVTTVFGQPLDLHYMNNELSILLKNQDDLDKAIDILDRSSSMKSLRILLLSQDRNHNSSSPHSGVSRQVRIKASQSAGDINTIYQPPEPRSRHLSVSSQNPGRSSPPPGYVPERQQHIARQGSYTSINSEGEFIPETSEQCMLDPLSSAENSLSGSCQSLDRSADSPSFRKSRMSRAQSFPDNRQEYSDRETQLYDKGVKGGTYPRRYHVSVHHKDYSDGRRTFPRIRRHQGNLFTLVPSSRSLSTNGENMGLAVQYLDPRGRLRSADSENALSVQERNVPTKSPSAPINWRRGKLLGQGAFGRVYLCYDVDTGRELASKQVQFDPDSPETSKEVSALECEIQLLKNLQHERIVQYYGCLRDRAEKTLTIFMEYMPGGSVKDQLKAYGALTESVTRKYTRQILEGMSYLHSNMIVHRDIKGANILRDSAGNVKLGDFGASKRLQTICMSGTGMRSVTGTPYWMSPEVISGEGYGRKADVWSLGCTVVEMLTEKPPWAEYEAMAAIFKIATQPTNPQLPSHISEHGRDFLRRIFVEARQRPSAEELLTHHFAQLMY

[13] = molecular target: Mitogen-activated protein kinase kinase kinase 1 (Homo sapiens, UniProt Q13233); experiment: Selectivity interaction (KinomeScan (DiscoverX)) EUB0000655a MAP3K1; settings: at 10 µM
[14] = molecular target: G protein-coupled receptor kinase 4 (Homo sapiens) (UniProt P32298); experiment: Selectivity interaction (KinomeScan (DiscoverX)) EUB0000655a GRK4; settings: at 10 µM
Sequence of G protein-coupled receptor kinase 4 (Homo sapiens) (P32298 whole entry, looked up): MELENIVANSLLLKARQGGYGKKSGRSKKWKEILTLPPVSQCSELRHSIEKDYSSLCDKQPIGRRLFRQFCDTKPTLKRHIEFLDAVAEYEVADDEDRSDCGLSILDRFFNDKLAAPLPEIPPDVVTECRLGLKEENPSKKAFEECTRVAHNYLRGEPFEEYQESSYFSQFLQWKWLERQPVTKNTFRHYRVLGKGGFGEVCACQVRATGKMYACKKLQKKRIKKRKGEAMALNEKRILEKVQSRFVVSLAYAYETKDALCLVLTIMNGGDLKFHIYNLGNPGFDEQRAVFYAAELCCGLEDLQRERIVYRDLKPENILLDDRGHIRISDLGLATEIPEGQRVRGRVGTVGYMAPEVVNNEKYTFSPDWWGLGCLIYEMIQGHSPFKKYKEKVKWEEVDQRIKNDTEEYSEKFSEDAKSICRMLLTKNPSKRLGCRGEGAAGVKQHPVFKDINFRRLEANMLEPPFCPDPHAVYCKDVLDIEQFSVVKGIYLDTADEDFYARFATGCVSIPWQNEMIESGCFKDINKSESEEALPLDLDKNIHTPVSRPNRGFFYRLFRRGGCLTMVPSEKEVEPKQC

[15] = molecular target: T3, STE20-related kinase adapter protein alpha (Homo sapiens) (UniProt Q7RTN6); experiment: Selectivity interaction (ActivX KiNativ screen (ex vivo kinase selectivity in human PBMCs)) EUB0001619a STRADA; type: cell-based; settings: PBMC, at 1 µM
T3 sequence (whole entry): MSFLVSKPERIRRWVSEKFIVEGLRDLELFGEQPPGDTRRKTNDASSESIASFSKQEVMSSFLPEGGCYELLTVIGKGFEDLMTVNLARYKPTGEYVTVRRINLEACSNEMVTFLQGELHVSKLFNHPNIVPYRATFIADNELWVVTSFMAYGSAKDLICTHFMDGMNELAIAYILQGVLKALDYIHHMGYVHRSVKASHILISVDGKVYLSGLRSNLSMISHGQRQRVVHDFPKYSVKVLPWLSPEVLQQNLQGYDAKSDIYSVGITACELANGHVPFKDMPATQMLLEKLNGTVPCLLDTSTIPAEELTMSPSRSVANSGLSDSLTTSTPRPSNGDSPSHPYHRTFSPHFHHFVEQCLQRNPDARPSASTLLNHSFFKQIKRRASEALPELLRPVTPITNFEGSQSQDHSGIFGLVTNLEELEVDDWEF

[16] = molecular target: Casein kinase I isoform delta (Homo sapiens, UniProt P48730); experiment: Selectivity interaction (Kinase panel (DSF assay)) EUB0001559a CSNK1D
Sequence of Casein kinase I isoform delta (P48730 whole entry, looked up, canonical isoform): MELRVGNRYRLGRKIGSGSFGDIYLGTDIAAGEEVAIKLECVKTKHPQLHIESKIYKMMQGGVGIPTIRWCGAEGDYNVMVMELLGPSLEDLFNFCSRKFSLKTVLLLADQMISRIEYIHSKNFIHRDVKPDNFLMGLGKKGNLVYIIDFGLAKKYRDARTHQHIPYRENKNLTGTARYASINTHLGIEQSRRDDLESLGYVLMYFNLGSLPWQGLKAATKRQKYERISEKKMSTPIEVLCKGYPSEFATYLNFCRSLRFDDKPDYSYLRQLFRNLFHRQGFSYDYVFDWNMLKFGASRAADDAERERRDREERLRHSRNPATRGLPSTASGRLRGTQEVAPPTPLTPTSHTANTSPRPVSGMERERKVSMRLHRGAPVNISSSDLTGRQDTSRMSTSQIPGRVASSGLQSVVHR

[17] = test system: Tyrosine-protein kinase ABL1 (Homo sapiens), P00519 [F317L]; experiment: Selectivity interaction (KinomeScan (DiscoverX)) EUB0000607a ABL1; settings: at 10 µM
[18] = molecular target: Serine/threonine-protein kinase PLK3 (Homo sapiens, UniProt Q9H4B4); experiment: Selectivity interaction (KinomeScan (DiscoverX)) EUB0000607a PLK3; settings: at 10 µM
Sequence of Serine/threonine-protein kinase PLK3 (Q9H4B4 whole entry, looked up): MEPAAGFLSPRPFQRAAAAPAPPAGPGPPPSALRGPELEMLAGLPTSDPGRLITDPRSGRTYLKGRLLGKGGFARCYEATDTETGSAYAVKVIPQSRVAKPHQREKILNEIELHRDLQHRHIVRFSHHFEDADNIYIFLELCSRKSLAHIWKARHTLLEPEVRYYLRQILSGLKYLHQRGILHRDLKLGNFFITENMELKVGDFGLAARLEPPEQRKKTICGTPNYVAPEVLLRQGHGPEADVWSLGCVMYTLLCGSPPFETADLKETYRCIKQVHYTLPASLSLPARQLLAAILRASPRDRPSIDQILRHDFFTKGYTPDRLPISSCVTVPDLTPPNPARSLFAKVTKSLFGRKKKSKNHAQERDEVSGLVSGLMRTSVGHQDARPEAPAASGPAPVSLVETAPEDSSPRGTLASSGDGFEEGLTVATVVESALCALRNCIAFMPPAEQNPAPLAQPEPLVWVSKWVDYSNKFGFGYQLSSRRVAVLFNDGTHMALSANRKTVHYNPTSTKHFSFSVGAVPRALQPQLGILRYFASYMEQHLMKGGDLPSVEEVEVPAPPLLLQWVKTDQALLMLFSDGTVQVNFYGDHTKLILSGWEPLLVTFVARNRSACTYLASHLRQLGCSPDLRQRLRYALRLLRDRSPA

[19] = molecular target: Serine/threonine-protein kinase 26 (Homo sapiens, UniProt Q9P289); experiment: Selectivity interaction (Kinase panel (KiNativ target engagement assay in Jurkat cells)) EUB0001635a STK26; type: cell-based; settings: Selectivity number of off-targets 0.0, Selectivity number of targets 233.0, Source Knowledge https://www.sciencedirect.com/science/article/pii/S2451945619300674?via%3Dihub, at 1 µM
Sequence of Serine/threonine-protein kinase 26 (Q9P289 2-416 limits assumed): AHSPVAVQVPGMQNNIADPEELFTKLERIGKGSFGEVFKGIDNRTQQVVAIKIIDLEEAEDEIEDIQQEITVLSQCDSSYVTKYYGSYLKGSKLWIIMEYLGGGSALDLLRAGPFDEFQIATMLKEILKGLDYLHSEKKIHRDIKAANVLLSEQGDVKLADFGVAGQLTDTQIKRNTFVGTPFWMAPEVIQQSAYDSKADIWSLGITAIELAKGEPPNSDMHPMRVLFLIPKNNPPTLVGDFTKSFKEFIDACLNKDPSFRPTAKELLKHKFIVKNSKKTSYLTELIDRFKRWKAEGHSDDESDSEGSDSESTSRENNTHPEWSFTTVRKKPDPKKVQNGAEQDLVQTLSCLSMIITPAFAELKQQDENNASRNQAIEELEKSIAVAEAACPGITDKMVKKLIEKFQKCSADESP

Sequence of Protein kinase C delta type (Homo sapiens) (Q05655 whole entry, looked up): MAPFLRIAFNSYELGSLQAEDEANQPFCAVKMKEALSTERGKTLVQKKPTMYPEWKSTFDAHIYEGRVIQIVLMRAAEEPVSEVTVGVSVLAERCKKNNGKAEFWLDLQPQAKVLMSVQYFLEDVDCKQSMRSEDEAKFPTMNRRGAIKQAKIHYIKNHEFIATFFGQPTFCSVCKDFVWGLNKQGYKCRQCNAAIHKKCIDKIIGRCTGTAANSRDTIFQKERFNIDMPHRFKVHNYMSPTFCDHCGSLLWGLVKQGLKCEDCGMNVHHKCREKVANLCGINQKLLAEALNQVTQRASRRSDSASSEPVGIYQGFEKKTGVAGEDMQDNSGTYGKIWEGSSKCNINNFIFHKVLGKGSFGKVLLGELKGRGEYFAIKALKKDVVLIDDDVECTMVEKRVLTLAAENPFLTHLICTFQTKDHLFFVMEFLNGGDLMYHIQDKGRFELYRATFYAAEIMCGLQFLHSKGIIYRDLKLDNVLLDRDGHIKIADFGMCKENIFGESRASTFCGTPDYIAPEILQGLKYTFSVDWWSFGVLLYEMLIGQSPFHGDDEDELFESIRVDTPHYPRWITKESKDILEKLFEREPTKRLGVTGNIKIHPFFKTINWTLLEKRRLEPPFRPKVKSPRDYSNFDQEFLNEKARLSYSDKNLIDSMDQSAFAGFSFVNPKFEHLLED

With `Cc1cc([C@@H](C)Nc2ccccc2C(=O)O)c2nc(N3CCOCC3)cc(=O)n2c1` [AZD-6482] as the molecule, how does the % of control [1] read?
The % of control was 82%.

For `CCc1cc(Nc2nccc(-c3c(-c4ccc(OC)c(C(=O)Nc5c(F)cccc5F)c4)nc4ccccn34)n2)c(OC)cc1N1CCC(N2CCN(S(C)(=O)=O)CC2)CC1`, which % of inhibition [2] is on record?
Its % of inhibition is 50%.

Which % of control [3] does the source give for `COc1cc(Nc2nc(C)cc(-c3cnn4nc(OC)ccc34)n2)cc(C(F)(F)F)c1` here?
The % of control was 71%.

What about the IC50 [4] of the same molecule?
The IC50 was > 10 µM.

With `CN(C)C/C=C/C(=O)Nc1ccc(C(=O)N2CCCC(Nc3ncc(Cl)c(-c4c[nH]c5ccccc45)n3)C2)cc1` (stereo not given) as the molecule, how does the % of control [5] read?
Its % of control is 86%.

And the % of control [6]?
Its % of control is 93%.

Which % of inhibition [7] does the source give for `CC[C@@H]1[C@H](F)C(=O)N[C@@H]1COc1nccc2cc(C(N)=O)c(OC)cc12` [ZIMLOVISERTIB] here?
The % of inhibition was 5.5%.

And the % of inhibition [8]?
Its % of inhibition is 10.4%.

With `Cc1cc(F)c(C(=O)Nc2cccc(-c3nncn3C(C)C)n2)cc1-n1cnc(C2CC2)c1` as the molecule, how does the % of control [9] read?
The % of control was 89%.

For `Nc1cnc(N2CCc3cc(S(=O)(=O)Nc4c(F)cc(Cl)cc4F)cc(N4CCCC4=O)c32)nc1` [TP-020n], which % of inhibition [10] is on record?
Its % of inhibition is -0.37%.

For `C=CC(=O)Nc1cccc(C(=O)Nc2ccc(Nc3cc(-c4[nH]c(SC)nc4C)ccn3)cc2)c1`, which % of control [11] is on record?
The % of control was 67%.

Which % of control ([12]; at 1 µM) does the source give for `C=CC(=O)Nc1cc(-n2c(=O)ccc3cnc4ccc(-c5ccc(NS(C)(=O)=O)cc5)cc4c32)ccc1C` here?
The % of control was 100%.

What about the % of control ([12]; at 10 µM) of the same molecule?
The % of control was 79%.

Which % of control [13] does the source give for `CN(C)CCOc1ccc(-c2nc(-c3ccncc3)c(-c3ccc4c(c3)CC/C4=N\O)[nH]2)cc1` here?
The % of control was 72%.

And the % of control [14]?
Its % of control is 100%.

Which % of inhibition [15] does the source give for `N#Cc1cccc(-c2c[nH]c3ncnc(N4CCOCC4)c23)c1` here?
The % of inhibition was 1%.

Which dTM [16] does the source give for `CN(C(=O)c1cnn2cccnc12)c1cc2c(cc1N1CCOCC1)C(=O)N(C[C@@H](F)C(C)(C)O)C2` here?
The dTM was -0.9 K.

For `CNC(=O)Nc1ccc(-c2nc(N3CC4CCC(C3)O4)c3cnn(C4CCC5(CC4)OCCO5)c3n2)cc1`, which % of control [17] is on record?
Its % of control is 96%.

And the % of control [18]?
Its % of control is 100%.

Which % of engagement [19] does the source give for `C=CC(=O)Nc1ccc(C(=O)Nc2[nH]nc3c2CN(C(=O)N[C@H](CN(C)C)c2ccccc2)C3(C)C)cc1` here?
Its % of engagement is -26.3%.
